US6376497B1, “Antifungal azole derivatives having a fluorinated vinyl group and process for preparing same” (Korea Research Institute of Chemical Technology, priority 1999, dated 2002)
Converted amounts (≈) assume the structure as drawn. Read-outs that look alike come from different tables or passages of the source.

What was measured:
[1] = tested on: Aspergillus niger A. 16404; assay: In vitro antifungal activity, microbroth dilution MIC; type: cell-based; conditions: Aspergillus niger
Method in brief: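 Broth microdilution adapted from NCCLS M27, in RPMI-1640 with 0.165 M MOPS, pH 7.0. Yeast or mould inoculum at 2×10^3 CFU/ml was mixed 1:1 with DMSO-derived compound solutions (200 to 0.10 μg/ml before mixing) and incubated at 35 °C for 4 to 48 h. MIC was the concentration showing no growth.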

mouse = conditions: oral; cited from earlier work
[2] = A. niger A. 16404, RPMI-1640, 35° C., 4 to 48 hours, read-out: Minimal inhibitory concentration (MIC)
[3] = A.16404, RPMI-1640, 35° C., 4 to 48 hours, no growth observed, read-out: Minimal inhibitory concentration(MIC), A. niger A. 16404
[4] = A.16404, RPMI-1640, 35° C., no growth observed, read-out: Minimal inhibitory concentration (MIC), A. niger A. 16404

SMILES	MIC [1, 2] [µg/mL]	MIC [1, 3] [µg/mL]	MIC [1, 4] [µg/mL]	LD50 (mouse) [mg/kg]
OC(Cn1cncn1)(Cn1cncn1)c1ccc(F)cc1F [fluconazole, reference compound]	> 100	> 100	> 100	
CCC(C)n1ncn(-c2ccc(N3CCN(c4ccc(OCC5COC(Cn6cncn6)(c6ccc(Cl)cc6Cl)O5)cc4)CC3)cc2)c1=O (stereo not shown) [itraconazole, reference compound]	1.56 (≈ 2.21 µM)	1.56 (≈ 2.21 µM)	1.56 (≈ 2.21 µM)	320
